The source of these data is ChEMBL document CHEMBL1201862, “PubChem BioAssay data set” (2004).

Molecules are shown by their SMILES. Calls of active or inactive are those of the source. A value given as a limit tells only on which side of the number the result lay.

The target of assay [1] is T1, Insulin-degrading enzyme (Homo sapiens, UniProt P14735).
T1 sequence (P14735 whole entry): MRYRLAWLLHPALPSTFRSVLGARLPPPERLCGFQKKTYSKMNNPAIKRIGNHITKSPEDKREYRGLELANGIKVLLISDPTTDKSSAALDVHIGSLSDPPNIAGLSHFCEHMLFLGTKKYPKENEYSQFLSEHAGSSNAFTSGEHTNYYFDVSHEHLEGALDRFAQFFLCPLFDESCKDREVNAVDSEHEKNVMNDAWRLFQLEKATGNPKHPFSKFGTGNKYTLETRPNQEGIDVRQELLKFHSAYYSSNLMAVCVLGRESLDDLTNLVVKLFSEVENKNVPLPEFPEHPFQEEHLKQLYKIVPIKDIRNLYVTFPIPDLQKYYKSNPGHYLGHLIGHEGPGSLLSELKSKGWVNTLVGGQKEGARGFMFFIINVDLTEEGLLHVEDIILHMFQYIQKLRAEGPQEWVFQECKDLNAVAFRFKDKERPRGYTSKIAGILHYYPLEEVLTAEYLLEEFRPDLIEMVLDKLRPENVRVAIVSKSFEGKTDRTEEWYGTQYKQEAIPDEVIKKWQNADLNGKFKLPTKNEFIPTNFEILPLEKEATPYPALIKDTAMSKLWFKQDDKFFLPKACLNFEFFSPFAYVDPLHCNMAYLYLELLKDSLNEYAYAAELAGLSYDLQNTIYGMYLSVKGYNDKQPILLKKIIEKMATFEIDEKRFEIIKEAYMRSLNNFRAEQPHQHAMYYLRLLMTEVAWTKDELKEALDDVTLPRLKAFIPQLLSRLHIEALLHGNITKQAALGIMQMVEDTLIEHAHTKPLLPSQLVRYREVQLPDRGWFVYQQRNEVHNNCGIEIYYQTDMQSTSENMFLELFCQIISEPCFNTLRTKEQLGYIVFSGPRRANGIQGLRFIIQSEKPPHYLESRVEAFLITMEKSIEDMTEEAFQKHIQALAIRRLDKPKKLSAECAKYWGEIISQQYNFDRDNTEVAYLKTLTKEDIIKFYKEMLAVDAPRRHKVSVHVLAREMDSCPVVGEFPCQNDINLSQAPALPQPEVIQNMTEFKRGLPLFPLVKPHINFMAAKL
In words: recombinant IDE activation, cell-free – biochemical, fluorescence polarization, counter-screen for IDE activator project, dose response (AID 588681). (In general: Fluorescence polarisation rises when a labelled molecule tumbles more slowly, as on binding a larger partner.)

In assay [2] the target is T1, Insulin-degrading enzyme. In words: cellular IDE activation of Abeta substrate cleavage – fluorescence polarization, HEK cells, dose response (AID 588439). It is filed as functional, cell-based.
Assay [3] deals with HEK293. In words: membrane integrity loss in HEK cells – cell-based, fluorescence, cytotoxicity control for IDE activator project, dose response (AID 588440).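 Also: cytotoxicity by LDH release measuring loss of membrane integrity.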 To be noted: Homo sapiens. The class given is functional.
For assay [4], the system named is HEK293. In words: optical interference in Abeta FP readout, dose response, artefact control for IDE activator project, biochemical, fluorescence polarization (AID 588442). It is filed as functional, cell-based. The note with it: Homo sapiens.
The target in assay [5] is Glucose-6-phosphate 1-dehydrogenase (Homo sapiens, UniProt P11413). Kind of assay: inhibition of Homo sapiens G6PD, dose series – biochemical, fluorescence, selectivity assay for P. falciparum G6PD inhibitor project, dose response (AID 504792). The class given is functional.
Sequence of Glucose-6-phosphate 1-dehydrogenase (P11413 whole entry): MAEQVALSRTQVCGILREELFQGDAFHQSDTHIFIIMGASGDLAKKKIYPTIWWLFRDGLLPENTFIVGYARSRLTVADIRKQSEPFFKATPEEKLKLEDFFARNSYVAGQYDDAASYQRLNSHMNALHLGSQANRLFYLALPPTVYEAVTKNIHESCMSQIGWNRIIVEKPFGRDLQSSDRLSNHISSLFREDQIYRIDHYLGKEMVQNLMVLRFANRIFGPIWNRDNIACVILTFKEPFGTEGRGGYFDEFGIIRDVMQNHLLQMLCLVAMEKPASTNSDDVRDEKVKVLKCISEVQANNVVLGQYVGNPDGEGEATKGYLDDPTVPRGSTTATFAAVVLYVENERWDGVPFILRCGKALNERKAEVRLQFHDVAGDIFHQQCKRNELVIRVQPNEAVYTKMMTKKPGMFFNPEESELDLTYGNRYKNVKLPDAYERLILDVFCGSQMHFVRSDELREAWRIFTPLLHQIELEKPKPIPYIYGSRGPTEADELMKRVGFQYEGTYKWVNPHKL
The target in assay [6] is T2, C-C chemokine receptor type 6 (Homo sapiens, UniProt P51684).
T2 sequence (P51684 whole entry): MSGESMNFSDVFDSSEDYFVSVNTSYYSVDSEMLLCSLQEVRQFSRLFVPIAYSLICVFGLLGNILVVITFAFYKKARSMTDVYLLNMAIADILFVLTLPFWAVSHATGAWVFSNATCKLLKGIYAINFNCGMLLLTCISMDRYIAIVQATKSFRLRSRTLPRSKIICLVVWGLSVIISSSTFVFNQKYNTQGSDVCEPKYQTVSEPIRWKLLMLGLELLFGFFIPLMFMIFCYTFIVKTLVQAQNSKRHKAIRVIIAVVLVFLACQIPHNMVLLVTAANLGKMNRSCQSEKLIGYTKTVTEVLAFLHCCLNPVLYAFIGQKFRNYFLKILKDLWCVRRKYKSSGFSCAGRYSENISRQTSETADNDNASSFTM
Kind of assay: antagonism of CCR6 beta-arrestin recruitment – cell-based, luminescent beta-arrestin readout, dose response (AID 504728). It is filed as functional.

The next assay concerns the target Beta-galactosidase (Escherichia coli, UniProt Q8VNN2). In words: detection-enzyme interference by beta-gal modulators – biochemical, E. coli enzyme, set 3, artefact control for CCR6 antagonist project, dose response (AID 504712). The class given is functional.
A further assay deals with T3, Hexokinase HKDC1 (Homo sapiens, UniProt Q2TB90).
T3 sequence (Q2TB90 whole entry): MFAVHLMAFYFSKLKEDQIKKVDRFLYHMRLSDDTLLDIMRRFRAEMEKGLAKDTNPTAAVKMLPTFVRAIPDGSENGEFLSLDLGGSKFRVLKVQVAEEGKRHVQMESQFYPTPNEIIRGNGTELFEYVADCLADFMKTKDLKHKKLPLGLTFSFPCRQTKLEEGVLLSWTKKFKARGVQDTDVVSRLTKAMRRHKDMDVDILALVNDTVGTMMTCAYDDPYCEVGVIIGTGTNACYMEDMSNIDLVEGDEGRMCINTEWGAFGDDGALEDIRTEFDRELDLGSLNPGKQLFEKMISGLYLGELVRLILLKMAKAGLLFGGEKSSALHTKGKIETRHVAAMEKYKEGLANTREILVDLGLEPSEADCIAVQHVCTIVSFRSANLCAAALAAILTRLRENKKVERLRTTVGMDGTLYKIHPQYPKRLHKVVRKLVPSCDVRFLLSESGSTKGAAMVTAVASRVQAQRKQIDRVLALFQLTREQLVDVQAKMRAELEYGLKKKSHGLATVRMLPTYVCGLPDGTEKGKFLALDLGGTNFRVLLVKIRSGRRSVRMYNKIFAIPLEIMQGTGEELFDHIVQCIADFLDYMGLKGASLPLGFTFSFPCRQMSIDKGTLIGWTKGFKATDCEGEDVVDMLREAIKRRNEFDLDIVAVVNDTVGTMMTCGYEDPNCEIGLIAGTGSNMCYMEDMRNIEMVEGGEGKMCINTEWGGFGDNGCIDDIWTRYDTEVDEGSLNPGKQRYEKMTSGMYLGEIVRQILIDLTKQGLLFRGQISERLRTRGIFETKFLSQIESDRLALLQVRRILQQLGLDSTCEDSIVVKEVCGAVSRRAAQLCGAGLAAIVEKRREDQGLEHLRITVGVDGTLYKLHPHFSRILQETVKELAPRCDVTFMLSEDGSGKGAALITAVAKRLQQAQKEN
In words: inhibition of HKDC1 glucose phosphorylation – biochemical, W721R variant, dose response (AID 504729). It is filed as functional.

A further assay relates to Vero. Kind of assay: viability of Vero cells under compound – cytotoxicity control for flavivirus capping enzyme inhibitors (AID 588742). It is filed as functional. To be noted: Chlorocebus sabaeus.
In another assay the target is Genome polyprotein (dengue virus type 2, UniProt P29990). Kind of assay: flavivirus cap methylation enzyme inhibition – biochemical, confirmation dose response, primary screen (AID 588689). The class given is functional.
Sequence of Genome polyprotein (P29990 2492-3391 limits assumed): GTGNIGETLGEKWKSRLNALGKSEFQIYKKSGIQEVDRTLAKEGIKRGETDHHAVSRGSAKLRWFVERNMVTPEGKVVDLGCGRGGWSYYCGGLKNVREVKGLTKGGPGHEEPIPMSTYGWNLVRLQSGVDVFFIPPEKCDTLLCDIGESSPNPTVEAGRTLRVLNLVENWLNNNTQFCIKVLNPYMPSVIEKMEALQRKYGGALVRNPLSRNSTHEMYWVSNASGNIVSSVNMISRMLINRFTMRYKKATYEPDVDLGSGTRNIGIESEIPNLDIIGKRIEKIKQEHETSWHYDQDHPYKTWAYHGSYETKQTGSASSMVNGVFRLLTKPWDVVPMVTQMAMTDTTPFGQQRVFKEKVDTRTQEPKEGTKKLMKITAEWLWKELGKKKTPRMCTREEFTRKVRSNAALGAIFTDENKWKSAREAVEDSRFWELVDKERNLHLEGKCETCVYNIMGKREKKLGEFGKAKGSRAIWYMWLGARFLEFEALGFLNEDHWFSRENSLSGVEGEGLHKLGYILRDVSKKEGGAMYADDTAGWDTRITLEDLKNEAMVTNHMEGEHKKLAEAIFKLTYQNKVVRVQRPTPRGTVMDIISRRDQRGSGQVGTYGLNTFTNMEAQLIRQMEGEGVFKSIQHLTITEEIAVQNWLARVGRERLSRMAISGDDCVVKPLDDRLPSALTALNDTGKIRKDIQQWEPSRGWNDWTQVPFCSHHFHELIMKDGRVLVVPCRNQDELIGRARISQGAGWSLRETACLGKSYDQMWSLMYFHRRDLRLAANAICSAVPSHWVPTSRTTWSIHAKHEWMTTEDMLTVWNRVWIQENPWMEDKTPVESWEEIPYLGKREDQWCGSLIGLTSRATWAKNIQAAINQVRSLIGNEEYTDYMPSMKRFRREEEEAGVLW
Assay [7] deals with T4, Mitochondrial peptide methionine sulfoxide reductase (Bos taurus, UniProt P54149).
T4 sequence (P54149 whole entry): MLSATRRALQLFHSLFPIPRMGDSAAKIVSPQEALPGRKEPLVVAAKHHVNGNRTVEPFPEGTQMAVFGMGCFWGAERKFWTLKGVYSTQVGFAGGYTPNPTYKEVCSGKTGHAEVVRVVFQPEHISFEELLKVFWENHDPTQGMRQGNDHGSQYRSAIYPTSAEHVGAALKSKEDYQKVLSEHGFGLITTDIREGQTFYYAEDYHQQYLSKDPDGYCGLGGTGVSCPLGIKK
Kind of assay: Absorbance-based biochemical high throughput dose response assay for activators of Methionine sulfoxide reductase A (MsrA). It is filed as functional.

Assay [8] can be described thus: Fluorescence-based cell-based high throughput dose response assay for inhibitors of the interaction of nucleotide-binding oligomerization domain containing 2 (NOD2) and the receptor-interacting serine-threonine kinase 2 (RIPK2). It is filed as functional. The note with it: Homo sapiens.
Another assay addresses Paired box protein Pax-8 (Homo sapiens, UniProt Q06710). Kind of assay: PAX8 transcriptional activity inhibition in RMG-I – RMG-I cells, luciferase, cherry-pick, dose response (AID 687027).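 Also: luciferase reporter driven by Pax8 target thyroperoxidase promoter measured by SteadyGlo luminescence.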 It is filed as functional, cell-based.
The target of assay [9] is T5, Tyrosyl-DNA phosphodiesterase 2 (Homo sapiens, UniProt O95551).
T5 sequence (O95551 whole entry): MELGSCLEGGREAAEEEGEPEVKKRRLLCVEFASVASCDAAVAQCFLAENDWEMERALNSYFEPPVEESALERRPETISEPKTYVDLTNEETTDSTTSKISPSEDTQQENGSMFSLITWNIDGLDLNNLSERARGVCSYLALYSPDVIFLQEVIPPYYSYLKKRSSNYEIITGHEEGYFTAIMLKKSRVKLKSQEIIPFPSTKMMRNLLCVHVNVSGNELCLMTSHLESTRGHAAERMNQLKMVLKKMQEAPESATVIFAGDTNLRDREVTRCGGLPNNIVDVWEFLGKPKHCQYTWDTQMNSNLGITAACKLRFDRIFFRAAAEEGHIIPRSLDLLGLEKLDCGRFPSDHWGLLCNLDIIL
In words: potency against TDP2 phosphodiesterase activity – biochemical, epi absorbance, IC50, dose response (AID 743297).

Assay [10] is described as follows: general cell-killing toxicity readout – plate reader, dry powder samples, cytotoxicity control for PAX8 inhibitor project, dose response (AID 743021). It is filed as functional, cell-based.
Assay [11] can be described thus: viability loss in THP-1 monocytes – THP-1 cells, cytotoxicity control for Vif-APOBEC3G degradation inhibitor project, dose response (AID 1117359). The class given is functional. The note with it: THP-1.
In a further assay the target is Phospholipase D1 (Homo sapiens, UniProt Q13393). In words: cellular phospholipase D1 inhibition IC50 – cell-based, dose response (AID 602151).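 Also: cellular PLD1 assay in Calu-1 cells stimulated with PMA.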 The class given is functional.
Sequence of Phospholipase D1 (Q13393 whole entry): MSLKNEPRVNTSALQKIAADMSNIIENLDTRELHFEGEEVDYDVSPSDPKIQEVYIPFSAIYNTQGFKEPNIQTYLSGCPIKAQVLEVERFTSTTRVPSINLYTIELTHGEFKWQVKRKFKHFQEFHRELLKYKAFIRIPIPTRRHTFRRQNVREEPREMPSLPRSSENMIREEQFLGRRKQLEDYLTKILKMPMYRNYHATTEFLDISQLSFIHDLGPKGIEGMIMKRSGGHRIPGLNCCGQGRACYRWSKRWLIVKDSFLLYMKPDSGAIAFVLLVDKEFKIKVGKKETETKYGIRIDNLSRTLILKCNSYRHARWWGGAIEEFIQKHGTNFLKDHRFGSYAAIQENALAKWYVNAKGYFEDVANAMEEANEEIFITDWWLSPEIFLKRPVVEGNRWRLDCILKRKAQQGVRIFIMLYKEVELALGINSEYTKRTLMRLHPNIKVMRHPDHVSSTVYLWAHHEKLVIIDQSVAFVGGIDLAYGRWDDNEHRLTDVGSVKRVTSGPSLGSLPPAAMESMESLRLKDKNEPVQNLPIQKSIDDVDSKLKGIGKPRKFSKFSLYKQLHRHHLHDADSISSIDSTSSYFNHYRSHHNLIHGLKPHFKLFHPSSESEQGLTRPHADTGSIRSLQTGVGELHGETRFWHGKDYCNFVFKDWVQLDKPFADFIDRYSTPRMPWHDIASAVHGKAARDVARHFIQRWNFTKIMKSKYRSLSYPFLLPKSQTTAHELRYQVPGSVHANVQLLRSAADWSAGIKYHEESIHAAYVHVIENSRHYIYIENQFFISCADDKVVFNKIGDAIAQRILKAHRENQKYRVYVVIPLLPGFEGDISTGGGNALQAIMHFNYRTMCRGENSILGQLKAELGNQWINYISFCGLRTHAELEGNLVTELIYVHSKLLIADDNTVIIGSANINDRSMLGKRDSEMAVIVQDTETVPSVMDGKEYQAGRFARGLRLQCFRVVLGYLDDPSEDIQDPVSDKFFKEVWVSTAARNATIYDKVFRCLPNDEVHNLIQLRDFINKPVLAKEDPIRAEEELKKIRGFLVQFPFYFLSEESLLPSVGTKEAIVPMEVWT
The next assay concerns the target Phospholipase D2 (Homo sapiens, UniProt O14939). In words: cellular phospholipase D2 inhibition IC50 – cell-based, dose response (AID 602147).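 Also: cellular assay in HEK293 cells overexpressing GFP-tagged PLD2.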 It is filed as functional.

Sequence of Phospholipase D2 (O14939 whole entry): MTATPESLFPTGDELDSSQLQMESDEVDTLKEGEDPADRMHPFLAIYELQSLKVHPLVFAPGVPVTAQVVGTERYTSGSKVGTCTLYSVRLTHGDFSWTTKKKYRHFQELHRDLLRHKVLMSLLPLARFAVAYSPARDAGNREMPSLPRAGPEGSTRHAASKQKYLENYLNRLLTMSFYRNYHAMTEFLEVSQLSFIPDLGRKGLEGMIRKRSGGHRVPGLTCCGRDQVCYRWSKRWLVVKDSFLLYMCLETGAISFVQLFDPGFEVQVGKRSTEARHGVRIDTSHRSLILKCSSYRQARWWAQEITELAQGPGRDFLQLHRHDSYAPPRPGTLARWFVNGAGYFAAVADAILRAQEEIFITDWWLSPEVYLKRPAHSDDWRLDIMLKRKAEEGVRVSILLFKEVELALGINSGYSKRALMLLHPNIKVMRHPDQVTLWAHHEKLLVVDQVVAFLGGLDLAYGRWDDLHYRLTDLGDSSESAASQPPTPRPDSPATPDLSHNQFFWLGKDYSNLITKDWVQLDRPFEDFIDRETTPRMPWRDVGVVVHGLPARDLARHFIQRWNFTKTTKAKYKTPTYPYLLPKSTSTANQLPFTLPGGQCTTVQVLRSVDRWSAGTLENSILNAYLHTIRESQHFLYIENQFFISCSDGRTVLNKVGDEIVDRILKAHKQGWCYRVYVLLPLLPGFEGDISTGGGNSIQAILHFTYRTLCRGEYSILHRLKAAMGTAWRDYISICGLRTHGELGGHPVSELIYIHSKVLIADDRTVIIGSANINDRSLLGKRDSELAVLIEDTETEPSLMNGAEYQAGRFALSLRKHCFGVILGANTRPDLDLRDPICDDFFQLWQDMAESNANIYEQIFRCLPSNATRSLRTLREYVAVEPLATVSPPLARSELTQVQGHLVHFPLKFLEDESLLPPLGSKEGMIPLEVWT
Sequence of Beta-galactosidase (Q8VNN2 whole entry): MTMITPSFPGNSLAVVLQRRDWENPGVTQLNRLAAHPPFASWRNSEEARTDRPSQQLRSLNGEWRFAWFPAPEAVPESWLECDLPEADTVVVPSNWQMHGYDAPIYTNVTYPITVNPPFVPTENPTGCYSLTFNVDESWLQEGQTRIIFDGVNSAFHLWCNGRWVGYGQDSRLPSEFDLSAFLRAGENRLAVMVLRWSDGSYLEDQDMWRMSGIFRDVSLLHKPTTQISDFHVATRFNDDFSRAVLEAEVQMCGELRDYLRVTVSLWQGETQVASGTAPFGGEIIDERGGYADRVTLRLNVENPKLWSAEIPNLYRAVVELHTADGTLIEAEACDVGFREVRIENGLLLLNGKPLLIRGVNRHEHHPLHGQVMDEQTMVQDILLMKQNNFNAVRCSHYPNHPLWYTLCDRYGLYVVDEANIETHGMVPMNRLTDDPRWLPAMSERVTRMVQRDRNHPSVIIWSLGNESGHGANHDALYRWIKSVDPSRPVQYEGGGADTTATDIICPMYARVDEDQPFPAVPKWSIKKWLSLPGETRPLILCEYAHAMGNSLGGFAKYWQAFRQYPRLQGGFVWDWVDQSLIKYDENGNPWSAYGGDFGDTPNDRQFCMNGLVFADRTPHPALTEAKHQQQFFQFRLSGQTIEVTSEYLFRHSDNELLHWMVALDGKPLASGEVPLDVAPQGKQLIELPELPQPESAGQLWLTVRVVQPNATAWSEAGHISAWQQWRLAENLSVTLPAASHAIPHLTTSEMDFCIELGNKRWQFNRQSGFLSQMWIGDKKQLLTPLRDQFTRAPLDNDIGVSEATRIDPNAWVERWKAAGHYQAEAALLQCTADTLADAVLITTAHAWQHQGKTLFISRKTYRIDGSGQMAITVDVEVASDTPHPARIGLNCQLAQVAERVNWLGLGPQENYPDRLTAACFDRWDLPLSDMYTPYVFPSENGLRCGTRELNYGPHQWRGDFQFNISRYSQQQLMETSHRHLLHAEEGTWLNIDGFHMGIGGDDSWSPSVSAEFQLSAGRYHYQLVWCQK
Sequence of Paired box protein Pax-8 (Q06710 whole entry): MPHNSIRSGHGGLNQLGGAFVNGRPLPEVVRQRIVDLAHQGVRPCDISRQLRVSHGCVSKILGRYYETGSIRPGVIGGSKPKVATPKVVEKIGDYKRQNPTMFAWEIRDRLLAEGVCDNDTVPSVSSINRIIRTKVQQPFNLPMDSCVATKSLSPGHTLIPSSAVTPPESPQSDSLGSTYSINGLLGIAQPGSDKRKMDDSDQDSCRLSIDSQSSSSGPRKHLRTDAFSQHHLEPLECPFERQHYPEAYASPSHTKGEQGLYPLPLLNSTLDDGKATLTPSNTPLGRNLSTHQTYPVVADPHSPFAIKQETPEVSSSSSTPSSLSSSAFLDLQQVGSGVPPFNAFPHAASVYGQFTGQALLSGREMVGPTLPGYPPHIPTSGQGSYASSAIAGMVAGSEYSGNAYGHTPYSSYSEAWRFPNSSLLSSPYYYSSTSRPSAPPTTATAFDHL

Turning to `COC(=O)C(C(=O)OC)c1ncccc1[N+](=O)[O-]`, the EC50 (as a rule, the concentration at which the effect is half-maximal) at Insulin-degrading enzyme [1] was > 54.7 µM (inactive); at Insulin-degrading enzyme [2], > 54.7 µM (inactive); in the assay with HEK293 [4], > 55.9 µM (inactive). Also, in the assay on HEK293 [3], the IC50 (usually the concentration that gives 50% inhibition) is > 89.1 µM (inactive).
`O=C(NC1=CC(=O)c2ccccc2C1=O)c1ccccc1`: the IC50 in assay [5] was 35.7 µM (inactive); in [6], > 66.6 µM (inactive); on Beta-galactosidase, > 66.6 µM (inactive); at Hexokinase HKDC1 it was 3.09 µM (active); at Genome polyprotein, 18.5 µM (active); in assay [8], 2.06 µM (active). Also, the IC50 in assay [9] is 11.7 µM (inactive). For the same molecule, the CC50 (in general, the concentration giving 50% cytotoxicity) with Vero is 15.2 µM (active); in [11] it was 2.65 µM (active). In assay [7], the EC50 was 34.1 µM (inactive). Moreover, the concentration at half-maximal activity (AC50) (in general, the concentration at which the activity in the assay is half-maximal) at Paired box protein Pax-8 was 4.43 µM (active); in assay [10] it was 24.2 µM (active).
Consider `O=C(CSc1nc(N2CCOCC2)nc(N2CCOCC2)n1)Nc1ccc([N+](=O)[O-])cc1`, for which the EC50 on Insulin-degrading enzyme [1] is > 54.7 µM (inactive); at Insulin-degrading enzyme [2], > 54.7 µM (inactive); in the assay on HEK293 [4], 21.2 µM (inactive). In addition, in the assay on HEK293 [3], the IC50 was > 89.2 µM (inactive).
Turning to `C[C@@H](CN1CCC(n2c(=O)[nH]c3cc(I)ccc32)CC1)NC(=O)C1CC1c1ccccc1` (some centres undefined), the values for the IC50 at Phospholipase D1 and on Phospholipase D2 were 0.021 µM (active) and 6.5 µM (active), respectively.
Taken in the same sequence, the figures for `CC(C)[C@@H](CN1CCC2(CC1)C(=O)NCN2c1ccccc1)NC(=O)c1ccc2ccccc2c1` were 0.14 µM (active) and 1.5 µM (active).
